Experiments:
Experiment in all cases: relative viability (nuclei count vs DMSO), 5 days (fraction); higher = more cells survive
Crenolanib + Bortezomib = compound: CC1(COc2ccc3c(c2)ncn3-c2ccc3cccc(N4CCC(N)CC4)c3n2)COC1 [Crenolanib] + CC(C)C[C@H](NC(=O)[C@H](Cc1ccccc1)NC(=O)c1cnccn1)B(O)O [Bortezomib] (partner 0.002 µM)
Method in brief: (§1)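 Relative viability is defined as nuclei in treated wells over nuclei in vehicle wells. Duplicate plates were run and medians reported. Lung cancer cell lines in 1536-well plates were dosed by pin tool one day after seeding, with one drug or with a fixed anchor-drug dose plus five library-drug doses (not always all listed) in √10 steps, and nuclei were counted after 5 days.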

Crenolanib + Dasatinib = compound: CC1(COc2ccc3c(c2)ncn3-c2ccc3cccc(N4CCC(N)CC4)c3n2)COC1 [Crenolanib] + Cc1nc(Nc2ncc(C(=O)Nc3c(C)cccc3Cl)s2)cc(N2CCN(CCO)CC2)n1 [Dasatinib] (partner 0.075 µM)
Method in brief: as §1

Tivantinib + Trametinib = compound: O=C1NC(=O)[C@@H](c2cn3c4c(cccc24)CCC3)[C@@H]1c1c[nH]c2ccccc12 [Tivantinib] + CC(=O)Nc1cccc(-n2c(=O)n(C3CC3)c(=O)c3c(Nc4ccc(I)cc4F)n(C)c(=O)c(C)c32)c1 [Trametinib] (partner 0.02 µM)
Method in brief: as §1

Tivantinib + Foretinib = compound: O=C1NC(=O)[C@@H](c2cn3c4c(cccc24)CCC3)[C@@H]1c1c[nH]c2ccccc12 [Tivantinib] + COc1cc2c(Oc3ccc(NC(=O)C4(C(=O)Nc5ccc(F)cc5)CC4)cc3F)ccnc2cc1OCCCN1CCOCC1 [Foretinib] (partner 0.25 µM)
Method in brief: as §1

| Cell Line | relative viability (Crenolanib + Bortezomib; first compound 0.01 µM) | relative viability (Crenolanib + Bortezomib; first compound 0.03162 µM) | relative viability (Crenolanib + Bortezomib; first compound 0.1 µM) | relative viability (Crenolanib + Bortezomib; first compound 0.3162 µM) | relative viability (Crenolanib + Bortezomib; first compound 1 µM) | relative viability (Crenolanib + Dasatinib; first compound 0.01 µM) | relative viability (Crenolanib + Dasatinib; first compound 0.03162 µM) | relative viability (Crenolanib + Dasatinib; first compound 0.1 µM) | relative viability (Crenolanib + Dasatinib; first compound 0.3162 µM) | relative viability (Crenolanib + Dasatinib; first compound 1 µM) | relative viability (Tivantinib + Trametinib; first compound 0.01 µM) | relative viability (Tivantinib + Trametinib; first compound 0.03162 µM) | relative viability (Tivantinib + Trametinib; first compound 0.1 µM) | relative viability (Tivantinib + Trametinib; first compound 0.3162 µM) | relative viability (Tivantinib + Foretinib; first compound 0.01 µM) | relative viability (Tivantinib + Foretinib; first compound 0.03162 µM) | relative viability (Tivantinib + Foretinib; first compound 0.1 µM) | relative viability (Tivantinib + Foretinib; first compound 0.3162 µM) |
| --- | --- | --- | --- | --- | --- | --- | --- | --- | --- | --- | --- | --- | --- | --- | --- | --- | --- | --- |
| NCI-H1975 | 0.5 | 0.39 | 0.359 | 0.385 | 0.295 | 0.412 | 0.348 | 0.352 | 0.395 | 0.408 | 0.323 | 0.338 | 0.33 | 0.298 | 0.904 | 0.974 | 0.905 | 0.996 |
| NCI-H2085 | 1.05 | 1.1 | 1.07 | 1.11 | 0.968 | 0.27 | 0.26 | 0.263 | 0.216 | 0.315 | 0.62 | 0.484 | 0.544 | 0.516 | 0.921 | 1.13 | 0.916 | 0.666 |
| COR-L 105 | 0.95 | 0.863 | 0.646 | 0.825 | 0.676 | 0.453 | 0.315 | 0.383 | 0.42 | 0.411 | 0.425 | 0.412 | 0.455 | 0.356 | 0.834 | 0.991 | 0.982 | 0.735 |
| SK-LU-1 | 1.42 | 1.11 | 0.937 | 1.33 | 1 | 0.198 | 0.182 | 0.159 | 0.194 | 0.172 | 0.514 | 0.549 | 0.484 | 0.472 | 0.932 | 0.919 | 0.705 | 0.708 |
| PC-3 [JPC-3] | 0.814 | 0.889 | 0.779 | 0.831 | 0.749 | 0.989 | 0.974 | 0.974 | 1.12 | 1.06 | 0.731 | 0.726 | 0.693 | 0.513 | 1 | 1.12 | 1.06 | 0.904 |
| NCI-H661 | 0.807 | 0.853 | 0.851 | 0.831 | 0.745 | 0.958 | 0.845 | 0.864 | 0.992 | 1.09 | 0.602 | 0.561 | 0.536 | 0.355 | 1.01 | 1.04 | 0.968 | 0.686 |
| NCI-H2087 | 0.885 | 0.74 | 0.917 | 0.865 | 0.947 | 0.809 | 1.03 | 0.694 | 1.07 | 0.818 | 0.217 | 0.184 | 0.227 | 0.172 | 1.1 | 1.16 | 0.914 | 1.13 |
| NCI-H1755 | 1.03 | 0.993 | 1.01 | 0.967 | 0.909 | 0.465 | 0.472 | 0.395 | 0.437 | 0.384 | 0.78 | 0.748 | 0.666 | 0.771 | 0.971 | 0.863 | 0.871 | 1.03 |
| NCI-H2228 | 1.11 | 0.922 | 0.776 | 1.01 | 0.887 | 0.488 | 0.555 | 0.519 | 0.46 | 0.518 | 0.608 | 0.396 | 0.494 | 0.227 |  | 0.841 | 0.678 | 0.714 |

From the supplement of paper PMC10307832
